Laboratory results reported in patent publication US12006294B2, “Therapeutic compounds” (REGENTS OF THE UNIVERSITY OF MINNESOTA, priority 2017, dated 2024).
Entries after “also recorded” stand apart in the source; their conditions may differ. Read-outs that look alike come from different tables or passages of the source.

Assays:
mice [1] = assay: Tail flick assay of drug combinations (morphine or acetaminophen + GA and/or analogs); conditions: acetaminophen:BC1-45-1 ratios 500:1 to 1000:1; acetate
mice [2] = assay: Acetaminophen hepatotoxicity (ALT, TBARS, survival); conditions: for elevated ALT levels after acetaminophen overdose: delayed administration post APAP administration; for hepatotoxicity of acetaminophen (ALT levels): pretreatment (30 min) before acetaminophen
CAD5 cells = assay type: cell-based
Hela Cells = assay: Cellular ER stress model (tunicamycin, WST-8 cell viability); conditions: for AntiERStress (% Cell Survival): HeLa cells, tunicamycin 48 hours, WST-8; for viability at 2.5 µM: Homo sapiens, HeLa, 48 h
C57BL/6J mice = assay: MOG-induced experimental autoimmune encephalomyelitis (EAE); assay type: in vivo; conditions: daily treatment starting on PID 10, preliminary results, FIG. 2

Row | SMILES | 1/Elispot (CAD5 cells) | AntiPrion (Number of Cells × 10^4) (CAD5 cells) | EliSpot (Spots/10000 Cells) (CAD5 cells) | Elispot (vs PC) (CAD5 cells) | AntiERStress (% Cell Survival) (Hela Cells) | other results
1 | N=C(N)N/N=C/c1c(Cl)cccc1Cl [BC1-45-1, guanabenz, acetate] | – | – | – | – | – | analgesic synergy with acetaminophen in tail flick assay (mice [1]): exhibited synergy in the analgesic activity; also recorded: provided synergy at all the time points tested; survival rate (mice [2]; all treatment groups (pretreatment and delayed 0.5-8 h post acetaminophen)): 100%; elevated ALT levels after acetaminophen overdose (mice [2]; acetate): reduces elevated levels of ALT; also recorded: limited the hepatotoxicity of acetaminophen; hepatotoxicity of acetaminophen (ALT levels) (mice [2]; acetate): can limit the hepatotoxicity of acetaminophen; also recorded: limited the hepatotoxicity of acetaminophen
2 | N=C(N)N/N=C\c1c(Cl)cccc1Cl [BC1-55-1, (Z)-2-(2,6-dichlorobenzylidene)hydrazinecarboximidamide acetate] | 0.59 | 3 × 10^4 | 2200 | 1.69 | 64.33 | lipid peroxidation products (TBARS assay) (mice [2]; acetaminophen overdose, FIG. 7, acetate): can reduce the lipid peroxidation products; also recorded: limited the elevated lipid peroxidation byproducts; survival rate (mice [2]; delayed administration post APAP): 100%; elevated ALT levels after acetaminophen overdose (mice [2]; acetate): reduces elevated levels of ALT; survival rate (mice [2]; pretreated animals, acetaminophen overdose): 100%; hepatotoxicity of acetaminophen (ALT levels) (mice [2]; acetate): can limit the hepatotoxicity of acetaminophen; also recorded: limited the hepatotoxicity of acetaminophen; viability at 2.5 µM (Hela Cells; read-out: % Cell Survival Cmpd(2.5 μM) + Tuni, Hela cells, compound 2.5 μM + tunicamycin, WST-8 viability 48 hours after tunicamycin treatment): 22.1%; viability at 2.5 µM (Hela Cells; read-out: Compounds ERS (vs Tn), ERS activity vs Tuni = % cell survival (compound)/% cell survival (tunicamycin), compound 2.5 μM): 96%
3 | N=C(N)N/N=C/c1ccc(Cl)cc1F [BC2-19-1, (E)-2-(4-chloro-2-fluorobenzylidene)hydrazinecarboximidamide acetate] | 0.72 | 5 × 10^4 | 1800 | 1.38 | 64.15 | –
4 | COc1cccc(Cl)c1/C=N/NC(=N)N [BC2-25-1, (E)-2-(2-chloro-6-methoxybenzylidene)hydrazinecarboximidamide acetate] | 1.08 | 20 × 10^4 | 1200 | 0.92 | 51.7 | –
5 | N=C(N)N/N=C/c1c(Cl)cccc1C(F)(F)F [BC2-45-1, (E)-2-(2-chloro-6-(trifluoromethyl)benzylidene)hydrazinecarboximidamide acetate] | 0.62 | 10 × 10^4 | 2100 | 1.62 | 99.19 | –
6 | N=C(N)N/N=C/c1c(I)cccc1I [BC2-55-2, (E)-2-(2,6-diiodobenzylidene)hydrazinecarboximidamide] | 1.00 | 4 × 10^4 | 1300 | 1.00 | 70.69 | –
7 | N=C(N)N/N=C/c1c(O)cccc1Cl [BC2-59-1, (E)-2-(2-chloro-6-hydroxybenzylidene)hydrazinecarboximidamide acetate] | 0.93 | 15 × 10^4 | 1400 | 1.08 | 104.6895 | –
8 | N=C(N)N/N=C/c1c(N)cccc1Cl [BC2-61-1, (E)-2-(2-amino-6-chlorobenzylidene)hydrazinecarboximidamide] | 0.93 | 10 × 10^4 | 1400 | 1.08 | 86.56 | –
9 | N=C(N)N/N=C/c1ccccc1N [BC2-61-2, (E)-2-(2-aminobenzylidene)hydrazinecarboximidamide] | 1.63 | 50 × 10^4 | 800 | 0.62 | 58.21 | –
10 | CC(=O)N[C@@H](CS)C(=O)O [N-acetyl cysteine] | – | – | – | – | – | elevated ALT levels after acetaminophen overdose (mice [2]): less effective in limiting elevated ALT levels; hepatotoxicity of acetaminophen (ALT levels) (mice [2]): less effective in limiting the hepatotoxicity of acetaminophen; animals died before completion of the study (mice [2]; pretreatment, acetaminophen overdose): Twenty-five; animals died before completion of the study (mice [2]; treated four hours after acetaminophen overdose): Eighty-eight
11 | NC(N)=N/N=C/c1ccccc1Cl [Sephin 1, reference compound] | 1.63 | 32 × 10^4 | 800 | 0.62 | 87.19 | ERS (vs Tn) (Hela Cells; % cell survival (compound)/% cell survival (tunicamycin)): 1.80; EAE disease severity (clinical severity score) (C57BL/6J mice): markedly attended the EAE disease severity; EAE disease severity (clinical severity score) (C57BL/6J mice; listed as sephin 1): attends the EAE disease severity
